Series [1] has as its system Staphylococcus aureus. Briefly: Inhibition of EtBr efflux in ciprofloxacin-resistant Staphylococcus aureus 1199B overexpressing norA and harboring A116E grlA mutant assessed as reduction in fluorescence intensity at 10 uM measured for 5 mins by microplate reader analysis relative to control. The class given is functional.
The test system of series [2] is Staphylococcus aureus. Description: Synergistic antibacterial activity against wild type Staphylococcus aureus 1199 assessed as fold reduction in ciprofloxacin MIC at >=3.13 ug/ml by checkerboard assay. The format is functional. As to conditions: dose >= 3.13 µg/ml.
The test system of series [3] is Staphylococcus aureus. Description: Synergistic antibacterial activity against Staphylococcus aureus 1199B overexpressing norA and harboring A116E grlA mutant assessed as sixteen fold minimum potentiating concentration incubated in presence of ciprofloxacin by checkerboard assay. The class given is functional.
Series [4] deals with Staphylococcus aureus. Description: Antibacterial activity against ciprofloxacin-susceptible wild type Staphylococcus aureus 1199 assessed as inhibition of bacterial growth by broth microdilution method. The format is functional.
The subject of series [5] is Staphylococcus aureus. Description: Synergistic antibacterial activity against Staphylococcus aureus 1199B overexpressing norA and harboring A116E grlA mutant assessed as four fold minimum potentiating concentration incubated in presence of ciprofloxacin by checkerboard assay. The format is functional.
Series [6] concerns Staphylococcus aureus. Briefly: Antibacterial activity against ciprofloxacin-resistant Staphylococcus aureus 1199B overexpressing norA and harboring A116E grlA mutant assessed as inhibition of bacterial growth by broth microdilution method. The format is functional.
Series [7] has as its system Staphylococcus aureus. Briefly: Synergistic antibacterial activity against ciprofloxacin-resistant Staphylococcus aureus 1199B overexpressing norA and harboring A116E grlA mutant assessed as fold reduction in ciprofloxacin MIC at 6.25 uM by broth microdilution method. The class given is functional.
The subject of series [8] is Staphylococcus aureus. Briefly: Inhibition of EtBr efflux in ciprofloxacin-resistant Staphylococcus aureus 1199B overexpressing norA and harboring A116E grlA mutant assessed as reduction in fluorescence intensity at 50 uM measured for 5 mins by microplate reader analysis relative to control. The class given is functional.
Series [9] concerns Staphylococcus aureus. Briefly: Synergistic bactericidal activity against Staphylococcus aureus 1199B overexpressing norA and harboring A116E grlA mutant assessed as reduction in bacterial count at 6.25 ug/ml incubated for 6 hrs in presence of ciprofloxacin at MIC by time kill assay. The format is functional, organism-based. As to conditions: dose 6.25 µg/ml.
The test system of series [10] is Staphylococcus aureus. Briefly: Antibacterial activity against norA deleted Staphylococcus aureus K1902 assessed as inhibition of bacterial growth by broth microdilution method. The class given is functional.
The subject of series [11] is Staphylococcus aureus. Briefly: Synergistic antibiofilm activity against norA deleted Staphylococcus aureus K1902 assessed as biofilm eradication by measuring ciprofloxacin MBEC at 3.13 ug/ml incubated for 24 hrs by Calgary biofilm device assay. The conditions noted are these: dose 3.13 µg/ml. The format is functional.
Series [12] is described as follows: Cytotoxicity against human THP-1 cells assessed as cell viability incubated for 24 hrs by MTT assay. The class given is toxicity, cell-based. For orientation: Tetrazolium dyes change colour on reduction, which living cells bring about.
The test system of series [13] is Staphylococcus aureus. Briefly: Synergistic antibiofilm activity against Staphylococcus aureus 1199B overexpressing norA and harboring A116E grlA mutant assessed as biofilm eradication by measuring fold reduction in ciprofloxacin MBEC at 3.13 ug/ml incubated for 24 hrs by Calgary biofilm device assay. The format is functional. The conditions noted are these: dose 3.13 µg/ml.

Series [14] is described as follows: Cytotoxicity against human A549 cells assessed as cell viability at 12.5 ug/ml incubated for 24 hrs by MTT assay relative to control. The conditions noted are these: at 12.5 µg/mL, read-out: Activity. The class given is toxicity, cell-based.
The test system of series [15] is Staphylococcus aureus. Briefly: Synergistic bactericidal activity against Staphylococcus aureus 1199B overexpressing norA and harboring A116E grlA mutant assessed as reduction in bacterial count by measuring log reduction in colony forming count per ml at 6.25 ug/ml incubated for 4 hrs in presence of ciprofloxacin at 0.25 to 1 times MIC by time kill assay. The class given is functional. As to conditions: dose 6.25 µg/ml.

In series [16] the test system is Staphylococcus aureus. Description: Synergistic antibiofilm activity against Staphylococcus aureus 1199B overexpressing norA and harboring A116E grlA mutant assessed as biofilm eradication by measuring ciprofloxacin MBEC at 3.13 ug/ml incubated for 24 hrs by Calgary biofilm device assay. The format is functional. The conditions noted are these: dose 3.13 µg/ml.

In series [17] the test system is Staphylococcus aureus. Briefly: Antibacterial activity against Staphylococcus aureus K2378 harbouring norA promoting and coding region assessed as inhibition of bacterial growth by broth microdilution method. The class given is functional. On the technique in general: In broth dilution the organism is exposed to a series of concentrations in liquid medium.
For series [18], the system named is Staphylococcus aureus. Description: Synergistic antibiofilm activity against wild type Staphylococcus aureus 1199 assessed as biofilm eradication by measuring fold reduction in ciprofloxacin MBEC at 3.13 ug/ml incubated for 24 hrs by Calgary biofilm device assay. The class given is functional. As to conditions: dose 3.13 µg/ml.
In series [19] the test system is Staphylococcus aureus. Briefly: Potentiation of ciprofloxacin-induced antibacterial activity against Staphylococcus aureus 1199B overexpressing norA and harboring A116E grlA mutant assessed as post-antibiotic effect by measuring log reduction in colony forming unit per ml at 6.25 ug/ml preincubated for 1 hr followed by compound washout and measured after 5 hrs. The format is functional. As to conditions: dose 6.25 µg/ml.

Series [20] in a line: Cytotoxicity against human THP-1 cells assessed as cell viability at 3.13 ug/ml incubated for 24 hrs by MTT assay relative to control. The class given is toxicity, cell-based. As to conditions: at 3.13 µg/mL, read-out: Activity.
Series [21] deals with Staphylococcus aureus. Briefly: Potentiation of ciprofloxacin-induced antibacterial activity against Staphylococcus aureus 1199B overexpressing norA and harboring A116E grlA mutant assessed as time for post-antibiotic effect at 6.25 ug/ml preincubated for 1 hr followed by compound washout and measured after 5 hrs. The format is functional. The conditions noted are these: dose 6.25 µg/ml.

A short description of series [22]: Cytotoxicity against human THP-1 cells assessed as cell viability at 12.5 ug/ml incubated for 24 hrs by MTT assay relative to control. The format is toxicity, cell-based. The conditions noted are these: at 12.5 µg/mL, read-out: Activity.
Series [23] has as its system Staphylococcus aureus. Briefly: Synergistic antibacterial activity against Staphylococcus aureus 1199B overexpressing norA and harboring A116E grlA mutant assessed as eight fold minimum potentiating concentration incubated in presence of ciprofloxacin by checkerboard assay. The format is functional.
The nature of series [24]: Cytotoxicity against human A549 cells assessed as cell viability at 3.13 ug/ml incubated for 24 hrs by MTT assay relative to control. The format is toxicity, cell-based. As to conditions: at 3.13 µg/mL, read-out: Activity.
In series [25] the test system is Staphylococcus aureus. Briefly: Synergistic antibacterial activity against Staphylococcus aureus K2378 overexpressing norA assessed as fold reduction in ciprofloxacin MIC at 0.2 to 12.5 ug/ml by checkerboard assay. The class given is functional. The conditions noted are these: dose 0.2-12.5 µg/ml.
Series [26] has as its system Staphylococcus aureus. Briefly: Synergistic antibiofilm activity against wild type Staphylococcus aureus 1199 assessed as biofilm eradication by measuring ciprofloxacin MBEC at 3.13 ug/ml incubated for 24 hrs by Calgary biofilm device assay. The format is functional. The conditions noted are these: dose 3.13 µg/ml.
For series [27], the system named is Staphylococcus aureus. Briefly: Synergistic antibacterial activity against Staphylococcus aureus 1199B overexpressing norA and harboring A116E grlA mutant assessed as fold reduction in ciprofloxacin MIC at 0.2 to 0.39 ug/ml by checkerboard assay. The format is functional. As to conditions: dose 0.2-0.39 µg/ml.
Series [28] relates to Staphylococcus aureus. Briefly: Antibiofilm activity against wild type Staphylococcus aureus 1199 assessed as biofilm eradication incubated for 24 hrs by Calgary biofilm device assay. The format is functional.
The test system of series [29] is Staphylococcus aureus. Briefly: Antibiofilm activity against norA deleted Staphylococcus aureus K1902 assessed as biofilm eradication incubated for 24 hrs by Calgary biofilm device assay. The class given is functional.
In series [30] the test system is Staphylococcus aureus. Description: Antibiofilm activity against Staphylococcus aureus 1199B overexpressing norA and harboring A116E grlA mutant assessed as biofilm eradication incubated for 24 hrs by Calgary biofilm device assay. The format is functional.
Series [31] in a line: Selectivity index, ratio of CC50 for cytotoxicity against human THP-1 cells to MPC for synergistic antibacterial activity against Staphylococcus aureus 1199B overexpressing norA and harboring A116E grlA mutant assessed as four fold minimum potentiating concentration. The class given is toxicity, cell-based.

Consider five compounds from ChEMBL document CHEMBL5108024, “New C-6 functionalized quinoline NorA inhibitors strongly synergize with ciprofloxacin against planktonic and biofilm growing resistant Staphylococcus aureus strains” (Eur J Med Chem, 2022).

Converted amounts (≈) assume the structure as drawn. “And” between values parts separate entries of the source, which are not always exact repeats. Equal values may be shown once. The source made the active and inactive calls. The calls are words filed in the database; no cut-off is given here. A value given as a limit tells only on which side of the number the result lay.

Usually inhibition stands for the change of the read-out against control, counted positive when it falls. What is called MIC is the least concentration at which growth counts as inhibited. For the compound `CCCOc1ccc(-c2cc(OCCN3CCCCC3)c3cc(Nc4ccccc4)ccc3n2)cc1`, the inhibition was 50.1% in the series with Staphylococcus aureus [1] and 84.2% in the series with Staphylococcus aureus [8]. The “fold change (FC)” value is 4 in the series with Staphylococcus aureus [2] and 8 with Staphylococcus aureus [7]. The results for the MPC with Staphylococcus aureus [3] and with Staphylococcus aureus [5] were 0.78 µg/mL and 0.39 µg/mL, respectively. The MIC in the series with Staphylococcus aureus [4] was above 50 µg/mL; in the series on Staphylococcus aureus [6], > 50 µg/mL and > 519 µM.
As usually defined, the CC50 is the concentration that lowers cell viability or growth by half. On to `CCCOc1ccc(-c2cc(OCCN3CCCCC3)c3cc(OC(F)F)ccc3n2)cc1`, for which, in the series with Staphylococcus aureus [9], the result was Active. Moreover, the minimum inhibitory concentration (MIC) with Staphylococcus aureus [10] was 25 µg/mL (≈ 54.8 µM); in the series with Staphylococcus aureus [4], above 50 µg/mL; with Staphylococcus aureus [17] it was 25 µg/mL (≈ 54.8 µM); with Staphylococcus aureus [6], > 50 µg/mL and > 548 µM. The MBEC in the series on Staphylococcus aureus [11] was 40 µg/mL; in the series on Staphylococcus aureus [16], 0.63 µg/mL; with Staphylococcus aureus [26], 0.07 µg/mL. Also, the inhibition was found to be 85% with Staphylococcus aureus [1] and 80.2% with Staphylococcus aureus [8]. In series [12], the CC50 at 24 h was above 3.13 µg/mL. For the same compound, the “fold change (FC)” value in the series on Staphylococcus aureus [13] is reported as 512; in the series with Staphylococcus aureus [18] it was 286; with Staphylococcus aureus [7] it was “>=8”; with Staphylococcus aureus [25], 4. For the same compound, the viability at 24 h, 12.5 ug/ml in [14] was 100%; in series [22], 9.4%. Further, the results for the “log(activity)” value in the series with Staphylococcus aureus [15] and in the series with Staphylococcus aureus [19] were 3 and 1, respectively. Further, the MPC was determined as 0.39 µg/mL with Staphylococcus aureus [5] and 0.78 µg/mL in the series with Staphylococcus aureus [23]. Also, the viability at 24 h, 3.13 ug/ml in series [20] came out at 67.7%; in [24], 100%. For the same compound, the Time with Staphylococcus aureus [21] is 1.2 h.
For the compound `CCCOc1ccc(-c2cc(OCCN3CCCCC3)c3cc(OC)ccc3n2)cc1`, the MBEC in the series on Staphylococcus aureus [16] stood at 2.5 µg/mL; in the series with Staphylococcus aureus [26] it was 0.07 µg/mL. In addition, the “fold change (FC)” value with Staphylococcus aureus [18] was determined as 286; in the series with Staphylococcus aureus [27], 2. Moreover, the MPC in the series with Staphylococcus aureus [5] was 0.78 µg/mL; in the series with Staphylococcus aureus [23] it was 1.56 µg/mL. For the same compound, the minimum inhibitory concentration (MIC) in the series on Staphylococcus aureus [6] turned out to be 238 µM. Also, the inhibition in the series on Staphylococcus aureus [8] was 97.6%.
With `O=C(O)c1cn(C2CC2)c2cc(N3CCNCC3)c(F)cc2c1=O` [CIPROFLOXACIN], the MIC in the series on Staphylococcus aureus [10] is 0.15 µg/mL (≈ 0.453 µM); in the series on Staphylococcus aureus [4] it was 0.08 µg/mL (≈ 0.241 µM); with Staphylococcus aureus [17], 0.63 µg/mL (≈ 1.9 µM); in the series on Staphylococcus aureus [6] it was 10 µg/mL. The MBEC is 20 µg/mL with Staphylococcus aureus [28], 40 µg/mL in the series on Staphylococcus aureus [29] and 640 µg/mL in the series on Staphylococcus aureus [30].
Regarding `CCCOc1ccc(-c2cc(OCCN3CCCCCC3)c3cc(OCCC)ccc3n2)cc1`, the minimum inhibitory concentration (MIC) with Staphylococcus aureus [10] is above 50 µg/mL; in the series with Staphylococcus aureus [4] it was above 50 µg/mL; in the series with Staphylococcus aureus [17] it was above 50 µg/mL; with Staphylococcus aureus [6], > 50 µg/mL and > 540 µM. Moreover, the values for the inhibition in the series with Staphylococcus aureus [1] and in the series on Staphylococcus aureus [8] were 78.8% and 82.3%, respectively. Also, in series [31], the selectivity ratio is above 15. For the same compound, the CC50 at 24 h in [12] is above 3.13 µg/mL. Moreover, the viability at 24 h, 12.5 ug/ml in [14] was found to be 84.5%; in series [22], 38.4%. Moreover, the MBEC in the series on Staphylococcus aureus [16] is 2.5 µg/mL; in the series with Staphylococcus aureus [26], 0.07 µg/mL. Also, in the series with Staphylococcus aureus [5], the MPC turned out to be 0.2 µg/mL. For the same compound, the viability at 24 h, 3.13 ug/ml in series [20] stood at 70.3%; in series [24], 100%. In addition, the “fold change (FC)” value in the series with Staphylococcus aureus [7] is 8; with Staphylococcus aureus [25], 4.
